Earlier results, collected in patent US9895393B2, “Topical formulations for increasing the dermal concentration of hyaluronic acid” (SHAMROC, INC., priority 2012, dated 2018).
Peptide text beside a SMILES is read from it. * marks the point of attachment. Palmitoyl = CCCCCCCCCCCCCCCC(=O)*

Key:
skin = conditions: Studies have shown

Compound: CCCCCCCCCCCCCCCC(=O)N[C@@H](CCCCN)C(=O)N[C@H](C(=O)N[C@@H](CCCCN)C(=O)O)C(C)C.O=C(O)C(F)(F)F.O=C(O)C(F)(F)F [palmitoyl-lysyl-valyl-lysine bistrifluoroacetate] (Palmitoyl-Lys-Val-Lys-OH)
- collagen synthesis (human fibroblasts): stimulates collagen synthesis

Compound: CCCCCCCCC(CCCCCC)C(=O)OC[C@H](OC(=O)C(CCCCCC)CCCCCCCC)[C@H]1OC(=O)C(OC(=O)C(CCCCCC)CCCCCCCC)=C1OC(=O)C(CCCCCC)CCCCCCCC (stereo partly shown) [tetrahexyldecyl ascorbate]
- collagen production (skin): stimulate collagen production
- melanogenesis (the production of pigment) (skin): inhibiting melanogenesis
- anti-oxidant activity (lipid peroxidation): inhibiting lipid peroxidation
